The record followed here is US10584119B2, “Pyrazole compounds and methods of use thereof” (TRANSLATIONAL DRUG DEVELOPMENT, LLC, priority 2013, dated 2020).

Assay [1] concerns AN3CA. The experiment in a line: CellTiter-Blue cell viability assay, AN3CA cell line. It is filed as cell-based. To be noted: Homo sapiens, AN3-CA, 72 hour treatment, concentration that inhibits cell growth by 50 percent of control. The method, then:
(§1) Cell viability in the presence of varying concentrations of the above listed compounds at different time points was used to assess cytotoxicity and the effect of the compounds on cell proliferation.
(§2) Cell viability was measured by the CellTiter-Blue® cell viability assay Promega (Madison, Wis.). This procedure measures the conversion of the indicator dye (resazurin) to resorufin, an indicator of cell viability. Following treatment, growth media was removed and cells were incubated with 20 μl of CellTiter-Blue® Reagent and growth media for 1-4 hours at 37° C. Fluorescence values were measured at 535/590 nm using a Beckman-Coulter DTX-880 microplate reader.
(§3) Cells were grown to 70% confluency, trypsinized, counted, and seeded in 96 well flat-bottom plates at a final concentration of 2.5×10^3-5×10^3 cells/well (Day 0). Cells were allowed to incubate in growth media for 24 hours to allow for maximum adhesion. Treatment with the test agents or standard agents began on Day 1 and continued for 72 hours. At the 72 hour timepoint, treatment containing media was removed. Viable cell numbers were quantified by the CellTiter-Blue® cell viability assay as described above. Experiments were repeated at least twice with the same concentrations to determine growth inhibitory activity. Results from these studies were used to calculate an IC50 value (concentration of drug that inhibits cell growth by 50 percent of control) for each compound.
(§4) For single agent and combination studies, data from each experiment were collected and expressed as % Cell Growth using the following calculation: % Cell Growth=(ftest/fvehicle)×100 where ftest is the fluorescence of the tested sample, and fvehicle is the fluorescence of the vehicle in which the drug is dissolved. Dose response graphs and IC50 values were generated using Prism 4 software (GraphPad) using the following equation: Y=(Top−Bottom)/(1+10^((log IC50−X)[…])) where X is the logarithm of concentration and Y is the response. Y starts at the Bottom and goes to Top with a sigmoid shape.
(In general: Resazurin is reduced to fluorescent resorufin, in cell work by metabolically active cells.)

Assay [2] has as its system A498. The experiment in a line: CellTiter-Blue cell viability assay, A498 cell line. It is filed as cell-based. To be noted: Homo sapiens, 72 hour treatment, concentration that inhibits cell growth by 50 percent of control. Here is the method: as §1, §2, §3, §4

The structures appear in SMILES notation.

What is called IC50 is the midpoint of a concentration-inhibition curve.

For the compound `Cc1ccc(C(C)C)cc1-c1cc(C(F)(F)F)nn1-c1ccc(S(N)(=O)=O)cc1` [Compound 4], the half-inhibitory concentration (IC50) in assay [1] was found to be 0.83 µM; in assay [2] it was 1.1 µM.
On the same counts, the results for `CN(C)c1ccc(Br)cc1-c1cc(C(F)(F)F)nn1-c1ccc(S(N)(=O)=O)cc1` [Example 2] are 0.6 µM and 1.2 µM.
On the same counts, the results for `COc1ccc(C(C)C)cc1-c1cc(C(F)(F)F)nn1-c1ccc(S(N)(=O)=O)cc1` [Compound 7] are 5.8 µM and 12 µM.
The like results for `Cc1ccc(-c2ccn[nH]2)cc1-c1cc(C2CC2)nn1-c1ccc(S(N)(=O)=O)cc1` [Compound 73] were, in that order, 3.3 µM and 7.9 µM.
`CN(C)c1ccc(-c2ccn[nH]2)cc1-c1cc(C(F)(F)F)nn1-c1ccc(S(N)(=O)=O)cc1` [Compound 36]: the half-inhibitory concentration (IC50) in assay [1] came to 9.1 µM.
Regarding `Cc1ccc(Br)c(-c2cc(C(F)(F)F)nn2-c2ccc(S(N)(=O)=O)cc2)c1` [Compound 6], the 50% inhibitory concentration (IC50) in assay [1] came to 1.5 µM; in assay [2] it was 6.9 µM.
`Cc1cc(-c2ccncc2)cc(-c2cc(C(F)(F)F)nn2-c2ccc(S(N)(=O)=O)cc2)c1` [Compound 22]: the IC50 in assay [1] is 1.2 µM.
For the compound `Cc1ccc(-c2cccnc2)cc1-c1cc(C(F)(F)F)nn1-c1ccc(S(N)(=O)=O)cc1` [Compound 46], the figures for the IC50 in assay [1] and in assay [2] were 9.1 µM and 10 µM, respectively.
As to `NS(=O)(=O)c1ccc(-n2nc(C(F)(F)F)cc2-c2cc(-c3ccncc3)ccc2F)cc1` [Compound 20], the IC50 in assay [1] came to 3 µM.
For `Cc1ccc(Br)cc1-c1cc(C(F)(F)F)nn1-c1ccc(S(N)(=O)=O)cc1` [Example 1], the 50% inhibitory concentration (IC50) in assay [1] worked out at 7.6 µM; in assay [2], 11 µM.
With `Cc1cc(-c2cc(C3CC3)nn2-c2ccc(C(=O)NO)cc2)ccc1Cl` [Compound 76], the half-maximal inhibitory concentration (IC50) in assay [1] worked out at 9 µM.
With `Cc1ccc(-c2ccn[nH]2)cc1-c1cc(C(F)(F)F)nn1-c1ccc(S(N)(=O)=O)cc1` [Example 12], the half-maximal inhibitory concentration (IC50) in assay [1] was found to be 0.04 µM; in assay [2] it was 14 µM.
The like results for `NS(=O)(=O)c1ccc(-n2nc(C(F)(F)F)cc2-c2cccc(-c3ccn[nH]3)c2)cc1` [Compound 34] were, in that order, 2.1 µM and 12 µM.
The like results for `Cc1ccc(-c2ccncc2)cc1-c1cc(C(F)(F)F)nn1-c1ccc(S(N)(=O)=O)cc1` [Example 11] were, in that order, 0.01 µM and 8.9 µM.
